Patent US8343696B2, “Colored curable composition, fluorine-containing dipyrromethene compound and tautomer thereof, and fluorine-containing dipyrromethene metal complex and tautomer thereof, and color filter using the same and method for producing the color filter” (FUJIFILM Corporation, priority 2008, dated 2013)

Experiments:
Type in all cases: physicochemical
[1] = Absorption spectrum in ethyl acetate solution (spectrophotometer UV-2400PC)
Experimental: In consideration of film thickness, the molar absorption coefficient of the specific metal complex compounds-1, -2, -3 and -4 of the invention is preferably as high as possible, and 60,000 or higher is preferable. The maximum absorption wavelength (λmax) thereof is preferably from 520 nm to 580 nm, and more preferably from 530 nm to 570 nm, in order to improve color purity. The maximum absorption wavelength and the molar absorption coefficient are determined by using a spectrophotometer UV-2400PC (manufactured by Shimadzu Corporation).
The molar absorption coefficient (ε) of each of the obtained compounds was measured in an ethyl acetate solution using a spectrophotometer (trade name: UV-2400PC; manufactured by Shimadzu Corporation). The absorbance (Abs) at 450 nm was evaluated by normalizing the absorbance at a maximum absorption wavelength (λmax) to 1.0. […] The measurement results of the absorbance (Abs value), maximum absorption wavelength (λmax), and molar absorption coefficient (ε) are shown in Table 1.
By the method similar to the reaction scheme in Synthesis Example 1 above, the exemplary compounds (dipyrromethene metal complex compounds or tautomers thereof) shown in Table 1 were synthesized. The identification of the compounds and the measurement of the maximum absorption wavelength (λmax) and the molar absorption coefficient (ε) of the compounds were performed similarly to Synthesis Example 1 above.

[2] = Storage stability of colored resist solution (precipitation after one month at room temperature); design: key: A: No precipitation was observed; B: Slight precipitation was observed; C: Precipitation was observed; settings: negative-working colored resist solution, visual precipitation
Description: 9.4 g of the resist solution obtained in section 1 above and 0.35 g of the exemplary compound Ia-12 synthesized above (a compound represented by Formula (4): dipyrromethene complex compound) were mixed and dissolved, whereby a colored resist solution (a negative-working ultraviolet-sensitive colored curable composition) was obtained.
The colored resist solution was stored for one month at room temperature, and then degree of precipitation was visually observed. The storage stability was evaluated according to the following criteria.
A: No precipitation was observed
B: Slight precipitation was observed
C: Precipitation was observed

[3] = Transmittance at 450 nm of the color filter; settings: negative-working colored resist, 1.0 μm film; transmittance at λmax normalized to 2%
Experimental: The colored resist solution obtained in section 3 above was applied to an undercoat layer side of the glass substrate having an undercoat layer obtained in section 2 above by a spin coater such that a film thickness was 1.0 μm. Subsequently, the film was pre-baked at 100° C. for 120 sec, whereby a monochromatic color filter was obtained.
The transmission spectrum of the color filter obtained above was measured, and the transmittance at 450 nm was evaluated according to the following criteria. The transmittance of the color filter at 450 nm was evaluated by correcting (normalizing) the transmittance at the maximum absorption wavelength of the colorant included in the color filter to 2%. A larger transmittance indicates greater transmission of blue light, which indicates favorable magenta or violet color that can be used in a blue filter.
A: Transmittance at 450 nm was 90% or more
B: Transmittance at 450 nm was 80% or more but not more than 90%
C: Transmittance at 450 nm was not more than 80%

[4] = Heat resistance of coating film (color difference ΔEab before and after heating); settings: 100° C. for 1 hour on hot plate
Experimental: A glass substrate having undercoat layer formed by applying the colored resin composition obtained in section 3 above was heat-treated at 100° C. for 1 hour using a hot plate, and the color difference (ΔEab) between before and after the heating was determined by using a […] MCPD-1000 (trade name, manufactured by Otsuka Electronics Co., Ltd.). The heat resistance was evaluated according to the following criteria. A smaller AEab value indicates better heat resistance.
(§1) A: ΔEab value was less than 6
(§2) B: ΔEab value was from 6 to 10
(§3) C: ΔEab value was more than 10

[5] = Light-fastness of coating film (color difference ΔEab before and after xenon lamp irradiation); settings: xenon lamp 20,000 luxes for 10 hours (200,000 lux·h)
Experimental: A glass substrate having undercoat layer formed by applying the colored resin composition obtained in section 3 above was irradiated with a xenon lamp at an intensity of 20,000 luxes for 10 hours (equivalent to 200,000 lux·h), and the color difference ΔEab between before and after the irradiation was determined. The light-fastness was evaluated according to the following criteria. A smaller ΔEab value indicates better light-fastness.
as §1, §2, §3

Row | SMILES | maximum absorption wavelength (λmax) [1] | molar absorption coefficient (ε) [1] | Abs value at 450 nm when normalized to Abs = 1.0 at λmax [1] | Storage stability [2] | Heat resistance [4] | Light-fastness [5] | Transmittance at 450 nm [3]
1 | CC1CC(C(C)(C)C)C(OC(=O)C2=C(c3ccccc3)C3=Cc4c(-c5ccccc5)c(C(=O)OC5C(C(C)(C)C)CC(C)CC5C(C)(C)C)c(NC(=O)c5cc(F)ccc5NS(C)(=O)=O)[n]4[Zn-]([OH])[N+]3=C2NC(=O)c2cc(F)ccc2NS(C)(=O)=O)C(C(C)(C)C)C1 (stereo not drawn) [IIb-20] | 565 nm | 121,000 | 0.082 | A | A (ΔEab value was less than 6) | A (ΔEab value was less than 6) | A (Transmittance at 450 nm was 90% or more)
2 | CC1CC(C(C)(C)C)C(OC(=O)C2=C(c3ccccc3)C3=Cc4c(-c5ccccc5)c(C(=O)OC5C(C(C)(C)C)CC(C)CC5C(C)(C)C)c(NC(=O)c5ccc(F)c(Br)c5)[n]4[Zn-]([OH])[N+]3=C2NC(=O)c2ccc(F)c(Br)c2)C(C(C)(C)C)C1 (stereo not drawn) [IIb-24] | 564 nm | 100,900 | 0.091 | B | A (ΔEab value was less than 6) | A (ΔEab value was less than 6) | A (Transmittance at 450 nm was 90% or more)
3 | CC1CC(C(C)(C)C)C(OC(=O)C2=C(c3ccccc3)C3=Cc4c(-c5ccccc5)c(C(=O)OC5C(C(C)(C)C)CC(C)CC5C(C)(C)C)c(NC(=O)c5cc(F)c(F)c(F)c5)[n]4[Zn-]([OH])[N+]3=C2NC(=O)c2cc(F)c(F)c(F)c2)C(C(C)(C)C)C1 (stereo not drawn) [IIb-32] | 559 nm | 91,400 | 0.0143 | A | A (ΔEab value was less than 6) | A (ΔEab value was less than 6) | A (Transmittance at 450 nm was 90% or more)
4 | CC1CC(C(C)(C)C)C(OC(=O)C2=C(c3ccccc3)C3=Cc4c(-c5ccccc5)c(C(=O)OC5C(C(C)(C)C)CC(C)CC5C(C)(C)C)c(NC(=O)c5c(F)c(F)c(C(=O)O)c(F)c5F)[n]4[Zn-]([OH])[N+]3=C2NC(=O)c2c(F)c(F)c(C(=O)O)c(F)c2F)C(C(C)(C)C)C1 (stereo not drawn) [IIb-38] | 561 nm | 105,900 | 0.0099 | A | A (ΔEab value was less than 6) | A (ΔEab value was less than 6) | A (Transmittance at 450 nm was 90% or more)
5 | CC1CC(C(C)(C)C)C(OC(=O)C2=C(c3ccccc3)C3=Cc4c(-c5ccccc5)c(C(=O)OC5C(C(C)(C)C)CC(C)CC5C(C)(C)C)c(NC(=O)c5c(F)c(F)c(F)c(F)c5F)[n]4[Zn-]([OH])[N+]3=C2NC(=O)c2c(F)c(F)c(F)c(F)c2F)C(C(C)(C)C)C1 (stereo not drawn) [IIb-40] | 562 nm | 107,300 | 0.0087 | A | A (ΔEab value was less than 6) | A (ΔEab value was less than 6) | A (Transmittance at 450 nm was 90% or more)

The next lines start with results.

Row | maximum absorption wavelength (λmax) [1] | molar absorption coefficient (ε) [1] | Abs value at 450 nm when normalized to Abs = 1.0 at λmax [1] | Storage stability [2] | Heat resistance [4] | Light-fastness [5] | SMILES | Transmittance at 450 nm [3]
6 | 560 nm | 81,400 | 0.0154 | A | A (ΔEab value was less than 6) | A (ΔEab value was less than 6) | Cc1c(C(=O)OC2C(C(C)(C)C)CC(C)CC2C(C)(C)C)c(NC(=O)c2ccccc2C(F)(F)F)[n]2c1C=C1C(c3ccccc3)=C(C#N)C(NC(=O)C(C)Sc3cc(C(=O)O)cc(C(=O)O)c3)=[N+]1[Zn-]2[OH] (stereo not drawn) [Ia-12] | A (Transmittance at 450 nm was 90% or more)
7 | 560 nm | 87,600 | 0.0112 | A | A (ΔEab value was less than 6) | A (ΔEab value was less than 6) | Cc1c(C(=O)OC2C(C(C)(C)C)CC(C)CC2C(C)(C)C)c(NC(=O)c2cccc(C(F)(F)F)c2)[n]([Zn][OH])c1C=C1N=C(NC(=O)C(C)(C)C)C(C#N)=C1c1ccccc1 (stereo not drawn) [Ia-14] | A (Transmittance at 450 nm was 90% or more)
8 | 558 nm | 91,000 | 0.091 | A | A (ΔEab value was less than 6) | A (ΔEab value was less than 6) | Cc1c(C(=O)OC2C(C(C)(C)C)CC(C)CC2C(C)(C)C)c(NC(=O)c2cccc(C(F)(F)F)c2)[n]2c1C=C1C(c3ccccc3)=C(C#N)C(NC(=O)C(C)Sc3cc(C(=O)O)cc(C(=O)O)c3)=[N+]1[Zn-]2[OH] (stereo not drawn) [Ia-15] | A (Transmittance at 450 nm was 90% or more)
9 | 558 nm | 83,200 | 0.0099 | A | A (ΔEab value was less than 6) | A (ΔEab value was less than 6) | Cc1c(C(=O)OC2C(C(C)(C)C)CC(C)CC2C(C)(C)C)c(NC(=O)c2ccc(C(F)(F)F)cc2)[n]2c1C=C1C(c3ccccc3)=C(C#N)C(NC(=O)C(C)Sc3cc(C(=O)O)cc(C(=O)O)c3)=[N+]1[Zn-]2[OH] (stereo not drawn) [Ia-23] | A (Transmittance at 450 nm was 90% or more)
10 | 559 nm | 90,100 | 0.0106 | A | A (ΔEab value was less than 6) | A (ΔEab value was less than 6) | Cc1c(C(=O)OC2C(C(C)(C)C)CC(C)CC2C(C)(C)C)c(NC(=O)c2ccc(F)c(F)c2)[n]2c1C=C1C(c3ccccc3)=C(C#N)C(NC(=O)C(C)Sc3cc(C(=O)O)cc(C(=O)O)c3)=[N+]1[Zn-]2[OH] (stereo not drawn) [Ia-35] | A (Transmittance at 450 nm was 90% or more)
11 | 558 nm | 79,400 | 0.0191 | A | A (ΔEab value was less than 6) | A (ΔEab value was less than 6) | Cc1c(C(=O)OC2C(C(C)(C)C)CC(C)CC2C(C)(C)C)c(NC(=O)c2cc(F)cc(F)c2)[n]2c1C=C1C(c3ccccc3)=C(C#N)C(NC(=O)C(C)Sc3cc(C(=O)O)cc(C(=O)O)c3)=[N+]1[Zn-]2[OH] (stereo not drawn) [Ia-38] | A (Transmittance at 450 nm was 90% or more)
12 | 561 nm | 85,200 | 0.0105 | A | A (ΔEab value was less than 6) | A (ΔEab value was less than 6) | CC1CC(C(C)(C)C)C(OC(=O)c2c(-c3ccccc3)c(C=C3N=C(NC(=O)C(C)(C)C)C(C#N)=C3c3ccccc3)[n]([Zn][OH])c2NC(=O)c2cccc(C(F)(F)F)c2)C(C(C)(C)C)C1 (stereo not drawn) [Ib-14] | A (Transmittance at 450 nm was 90% or more)
